Experiments:
Format in all cases: in vivo
[1] = system: barnyardgrass (Echinochloa crus-galli); assay: Test B flooded paddy test, plant response rating 0-100; details: Flood, 250 g ai/ha; scale 0 to 100 (0 no effect, 100 complete control); 13 to 15 days
Excerpt: (§1) At time of treatment, test pots were flooded to 3 cm above the soil surface, treated by application of test compounds directly to the paddy water, and then maintained at that water depth for the duration of the test. Treated plants and controls were maintained in a greenhouse for 13 to 15 days, after which time all species were compared to controls and visually evaluated. […] A dash (-) response means no test result.

[2] = system: ducksalad (Heteranthera limosa); assay: as above; details: Flood, 250 g ai/ha; scale 0 to 100 (0 no effect, 100 complete control); 13 to 15 days
Excerpt: as §1

rice (Oryza sativa) = assay: as above; details: Flood, 250 g ai/ha; scale 0 to 100 (0 no effect, 100 complete control); 13 to 15 days
Excerpt: as §1

[3] = system: sedge, umbrella (small-flower umbrella sedge, Cyperus difformis); assay: as above; details: Flood, 250 g ai/ha; scale 0 to 100 (0 no effect, 100 complete control); 13 to 15 days
Excerpt: as §1

[4] = system: barnyardgrass (Echinochloa crus-galli); assay: Test A pre-/postemergence greenhouse herbicide test, visual injury rating 0-100
Excerpt: (§2) Seeds of plant species selected from barnyardgrass (Echinochloa crus-galli), large (Lg) crabgrass (Digitaria sanguinalis), giant foxtail (Setaria faberii), morningglory (Ipomoea spp.), pigweed (Amaranthus retroflexus), velvetleaf (Abutilon theophrasti), wheat (Triticum aestivum), and corn (Zea mays) were planted into a blend of loam soil and sand and treated preemergence with a directed soil spray using test chemicals formulated in a non-phytotoxic solvent mixture which included a surfactant. At the same time these species were also treated with postemergence applications of test chemicals formulated in the same manner. Plants ranged in height from 2 to 10 cm and were in the one- to two-leaf stage for the postemergence treatment. Treated plants and untreated controls were maintained in a greenhouse for approximately 10 days, after which time all treated plants were compared to untreated controls and visually evaluated for injury. Plant response ratings, summarized in Table A, are based on a 0 to 100 scale where 0 is no effect and 100 is complete control. A dash (-) response means no test result.

[5] = system: velvetleaf (Abutilon theophrasti); assay: as above
Excerpt: as §2

[6] = system: wheat (Triticum aestivum); assay: as above
Excerpt: as §2

[7] = system: pigweed (Amaranthus retroflexus); assay: as above
Excerpt: as §2

[8] = system: giant foxtail (Setaria faberii); assay: as above
Excerpt: as §2

corn (Zea mays) = assay: as above
Excerpt: as §2

[9] = system: large (Lg) crabgrass (Digitaria sanguinalis); assay: as above
Excerpt: as §2

[10] = system: morningglory (Ipomoea spp.); assay: as above
Excerpt: as §2

Compound: CCn1cc(C(=O)c2ccccc2)c(-c2cc(F)cc(Cl)c2)n1 [Compound 46]
- Plant response rating, Barnyardgrass [1]: 0
- Plant response rating, Ducksalad [2]: 0
- Plant response rating, Rice (rice (Oryza sativa)): 0
- Plant response rating, Sedge, Umbrella [3]: 0
- Plant response rating (0 to 100 scale), Barnyardgrass ([4]; Postemergence, 1000 g ai/ha): 0
- Plant response rating (0 to 100 scale), Barnyardgrass ([4]; Preemergence, 1000 g ai/ha): 0
- Plant response rating (0 to 100 scale), Velvetleaf ([5]; Postemergence, 1000 g ai/ha): 90
- Plant response rating (0 to 100 scale), Velvetleaf ([5]; Preemergence, 1000 g ai/ha): 90
- Plant response rating (0 to 100 scale), Wheat ([6]; Postemergence, 1000 g ai/ha): 0
- Plant response rating (0 to 100 scale), Wheat ([6]; Preemergence, 1000 g ai/ha): 0
- Plant response rating (0 to 100 scale), Pigweed ([7]; Postemergence, 1000 g ai/ha): 90
- Plant response rating (0 to 100 scale), Pigweed ([7]; Preemergence, 1000 g ai/ha): 100
- Plant response rating (0 to 100 scale), Foxtail, Giant ([8]; Postemergence, 1000 g ai/ha): 0
- Plant response rating (0 to 100 scale), Foxtail, Giant ([8]; Preemergence, 1000 g ai/ha): 0
- Plant response rating (0 to 100 scale), Corn (corn (Zea mays); Postemergence, 1000 g ai/ha): 0
- Plant response rating (0 to 100 scale), Corn (corn (Zea mays); Preemergence, 1000 g ai/ha): 0
- Plant response rating (0 to 100 scale), Crabgrass, Large ([9]; Postemergence, 1000 g ai/ha): 0
- Plant response rating (0 to 100 scale), Crabgrass, Large ([9]; Preemergence, 1000 g ai/ha): 0

Compound: CCn1cc(C(=O)c2ccccc2)c(-c2cc(Cl)c(Cl)c(Cl)c2)n1 [Compound 12]
- Plant response rating, Ducksalad [2]: 20
- Plant response rating, Rice (rice (Oryza sativa)): 0
- Plant response rating, Sedge, Umbrella [3]: 70
- Plant response rating (0 to 100 scale), Barnyardgrass ([4]; Postemergence, 1000 g ai/ha): 0
- Plant response rating (0 to 100 scale), Barnyardgrass ([4]; Preemergence, 1000 g ai/ha): 0
- Plant response rating (0 to 100 scale), Morningglory ([10]; Postemergence, 1000 g ai/ha): 0
- Plant response rating (0 to 100 scale), Morningglory ([10]; Preemergence, 1000 g ai/ha): 0
- Plant response rating (0 to 100 scale), Velvetleaf ([5]; Postemergence, 1000 g ai/ha): 80
- Plant response rating (0 to 100 scale), Velvetleaf ([5]; Preemergence, 1000 g ai/ha): 70
- Plant response rating (0 to 100 scale), Wheat ([6]; Postemergence, 1000 g ai/ha): 0
- Plant response rating (0 to 100 scale), Wheat ([6]; Preemergence, 1000 g ai/ha): 0
- Plant response rating (0 to 100 scale), Pigweed ([7]; Postemergence, 1000 g ai/ha): 90
- Plant response rating (0 to 100 scale), Pigweed ([7]; Preemergence, 1000 g ai/ha): 80
- Plant response rating (0 to 100 scale), Foxtail, Giant ([8]; Postemergence, 1000 g ai/ha): 0
- Plant response rating (0 to 100 scale), Foxtail, Giant ([8]; Preemergence, 1000 g ai/ha): 0
- Plant response rating (0 to 100 scale), Corn (corn (Zea mays); Postemergence, 1000 g ai/ha): 0
- Plant response rating (0 to 100 scale), Corn (corn (Zea mays); Preemergence, 1000 g ai/ha): 0
- Plant response rating (0 to 100 scale), Crabgrass, Large ([9]; Postemergence, 1000 g ai/ha): 0
- Plant response rating (0 to 100 scale), Crabgrass, Large ([9]; Preemergence, 1000 g ai/ha): 0

Compound: Cn1cc(C(=O)c2ccccc2)c(-c2cc(Cl)c(Cl)c(Cl)c2)n1 [Compound 11]
- Plant response rating, Ducksalad [2]: 0
- Plant response rating, Rice (rice (Oryza sativa)): 0
- Plant response rating, Sedge, Umbrella [3]: 0
- Plant response rating (0 to 100 scale), Barnyardgrass ([4]; Postemergence, 1000 g ai/ha): 0
- Plant response rating (0 to 100 scale), Barnyardgrass ([4]; Preemergence, 1000 g ai/ha): 0
- Plant response rating (0 to 100 scale), Morningglory ([10]; Postemergence, 1000 g ai/ha): 0
- Plant response rating (0 to 100 scale), Morningglory ([10]; Preemergence, 1000 g ai/ha): 0
- Plant response rating (0 to 100 scale), Velvetleaf ([5]; Postemergence, 1000 g ai/ha): 80
- Plant response rating (0 to 100 scale), Velvetleaf ([5]; Preemergence, 1000 g ai/ha): 70
- Plant response rating (0 to 100 scale), Wheat ([6]; Postemergence, 1000 g ai/ha): 0
- Plant response rating (0 to 100 scale), Wheat ([6]; Preemergence, 1000 g ai/ha): 0
- Plant response rating (0 to 100 scale), Pigweed ([7]; Postemergence, 1000 g ai/ha): 90
- Plant response rating (0 to 100 scale), Pigweed ([7]; Preemergence, 1000 g ai/ha): 90
- Plant response rating (0 to 100 scale), Foxtail, Giant ([8]; Postemergence, 1000 g ai/ha): 0
- Plant response rating (0 to 100 scale), Foxtail, Giant ([8]; Preemergence, 1000 g ai/ha): 0
- Plant response rating (0 to 100 scale), Corn (corn (Zea mays); Postemergence, 1000 g ai/ha): 0
- Plant response rating (0 to 100 scale), Corn (corn (Zea mays); Preemergence, 1000 g ai/ha): 0
- Plant response rating (0 to 100 scale), Crabgrass, Large ([9]; Postemergence, 1000 g ai/ha): 0
- Plant response rating (0 to 100 scale), Crabgrass, Large ([9]; Preemergence, 1000 g ai/ha): 0

Compound: CCn1cc(C(=NNc2ccccc2)c2ccccc2)c(-c2cc(Cl)cc(Cl)c2)n1 [Compound 36]
- Plant response rating (0 to 100 scale), Barnyardgrass ([4]; Postemergence, 125 g ai/ha): 0
- Plant response rating (0 to 100 scale), Barnyardgrass ([4]; Postemergence, 500 g ai/ha): 0
- Barnyardgrass plant response rating (0 = no effect, 100 = complete control) ([4]; Preemergence, 125 g ai/ha): 0
- Plant response rating (0 to 100 scale), Barnyardgrass ([4]; Preemergence, 500 g ai/ha): 0
- Plant response rating (0 to 100 scale), Morningglory ([10]; Postemergence, 125 g ai/ha): 0
- Plant response rating (0 to 100 scale), Morningglory ([10]; Postemergence, 500 g ai/ha): 0
- Morningglory plant response rating (0 = no effect, 100 = complete control) ([10]; Preemergence, 125 g ai/ha): 0
- Plant response rating (0 to 100 scale), Morningglory ([10]; Preemergence, 500 g ai/ha): 0
- Plant response rating (0 to 100 scale), Velvetleaf ([5]; Postemergence, 125 g ai/ha): 70
- Plant response rating (0 to 100 scale), Velvetleaf ([5]; Postemergence, 500 g ai/ha): 90
- Velvetleaf plant response rating (0 = no effect, 100 = complete control) ([5]; Preemergence, 125 g ai/ha): 20
- Plant response rating (0 to 100 scale), Velvetleaf ([5]; Preemergence, 500 g ai/ha): 20
- Plant response rating (0 to 100 scale), Wheat ([6]; Postemergence, 125 g ai/ha): 0
- Plant response rating (0 to 100 scale), Wheat ([6]; Postemergence, 500 g ai/ha): 0
- Wheat plant response rating (0 = no effect, 100 = complete control) ([6]; Preemergence, 125 g ai/ha): 0
- Plant response rating (0 to 100 scale), Wheat ([6]; Preemergence, 500 g ai/ha): 0
- Plant response rating (0 to 100 scale), Pigweed ([7]; Postemergence, 125 g ai/ha): 30
- Plant response rating (0 to 100 scale), Pigweed ([7]; Postemergence, 500 g ai/ha): 80
- Pigweed plant response rating (0 = no effect, 100 = complete control) ([7]; Preemergence, 125 g ai/ha): 0
- Plant response rating (0 to 100 scale), Pigweed ([7]; Preemergence, 500 g ai/ha): 70
- Plant response rating (0 to 100 scale), Foxtail, Giant ([8]; Postemergence, 125 g ai/ha): 0
- Plant response rating (0 to 100 scale), Foxtail, Giant ([8]; Postemergence, 500 g ai/ha): 0
- Foxtail, Giant plant response rating (0 = no effect, 100 = complete control) ([8]; Preemergence, 125 g ai/ha): 0
- Plant response rating (0 to 100 scale), Foxtail, Giant ([8]; Preemergence, 500 g ai/ha): 0
- Plant response rating (0 to 100 scale), Corn (corn (Zea mays); Postemergence, 125 g ai/ha): 0
- Plant response rating (0 to 100 scale), Corn (corn (Zea mays); Postemergence, 500 g ai/ha): 0
- Corn plant response rating (0 = no effect, 100 = complete control) (corn (Zea mays); Preemergence, 125 g ai/ha): 0
- Plant response rating (0 to 100 scale), Corn (corn (Zea mays); Preemergence, 500 g ai/ha): 0
- Plant response rating (0 to 100 scale), Crabgrass, Large ([9]; Postemergence, 125 g ai/ha): 0
- Plant response rating (0 to 100 scale), Crabgrass, Large ([9]; Postemergence, 500 g ai/ha): 0
- Crabgrass, Large plant response rating (0 = no effect, 100 = complete control) ([9]; Preemergence, 125 g ai/ha): 0
- Plant response rating (0 to 100 scale), Crabgrass, Large ([9]; Preemergence, 500 g ai/ha): 0

Reference: US10167262B2, “Herbicidal substituted 3-arylpyrazoles” (FMC CORPORATION, priority 2014, dated 2019)
